Entries after “also recorded” stand apart in the source; their conditions may differ.
Molecular target: GPR35 (Homo sapiens, UniProt Q9HC97)
Assay: PathHunter β-Arrestin assay of GPR35 activation (DiscoverX)
Type: cell-based
Conditions: for activation of GPR35 (in words): single HMOs, highest concentration tested 10 mM; for EC50: cell based β-arrestin recruitment, 3x dilutions from 10 mM, duplicate
Experimental: Six human milk oligosaccharides (LNnT, LNT, 2-FL, diFL, 6′ SL and 3-SL) were sreened for their ability to activate the GPR35 receptor in an in vitro assay.
The GPR35 cell line was expanded from frozen stocks and cultured according to standard procedures. Cells were seeded in a total volume of 20 μL into white walled, 384-well microplates and incubated at 37° C. for the appropriate time prior to testing. All testing was done in duplicate.
HMO samples were shipped to DiscoverX as concentrated stocks in Phosphate Buffered saline. On the test day, a 5× compound working intermediate was prepared in PBS. Five μL of 5× sample was added to cells and incubated at room temperature for 3 to 5 hours.
Assay signal was generated through a single addition of 12.5 μL (50% v/v) of PathHunter Detection reagent cocktail, followed by one-hour incubation at room temperature. Microplates were read following signal generation with a PerkinElmer Envision™ instrument for chemiluminescent signal detection.
Zaprinast (which is known to be an activator of GPR35) was used as positive control.
Percentage activity was calculated using the following formula: % Activity=100%×(mean RLU of test sample−mean RLU of vehicle control)/(mean MAX control ligand−mean RLU of vehicle control).
Dose-responses were generated by iterative 3× dilutions of the highest concentration tested (10 mM).
The samples were diluted in 1×PBS (pH ˜7) at 5× concentrations and sent to DiscoverX. The GPR35 activation assay was performed as described in Example 2.

GPR35, sequence (Q9HC97 whole entry): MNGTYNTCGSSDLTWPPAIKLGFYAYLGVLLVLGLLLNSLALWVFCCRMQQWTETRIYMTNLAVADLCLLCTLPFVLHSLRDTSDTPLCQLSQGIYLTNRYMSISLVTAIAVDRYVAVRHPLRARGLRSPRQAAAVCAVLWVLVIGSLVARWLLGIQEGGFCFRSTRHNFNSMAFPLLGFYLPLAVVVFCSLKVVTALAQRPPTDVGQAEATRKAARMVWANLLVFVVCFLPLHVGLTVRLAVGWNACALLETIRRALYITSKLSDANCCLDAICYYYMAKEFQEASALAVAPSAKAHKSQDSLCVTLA
GPR35, sequence (P32121 whole entry partner): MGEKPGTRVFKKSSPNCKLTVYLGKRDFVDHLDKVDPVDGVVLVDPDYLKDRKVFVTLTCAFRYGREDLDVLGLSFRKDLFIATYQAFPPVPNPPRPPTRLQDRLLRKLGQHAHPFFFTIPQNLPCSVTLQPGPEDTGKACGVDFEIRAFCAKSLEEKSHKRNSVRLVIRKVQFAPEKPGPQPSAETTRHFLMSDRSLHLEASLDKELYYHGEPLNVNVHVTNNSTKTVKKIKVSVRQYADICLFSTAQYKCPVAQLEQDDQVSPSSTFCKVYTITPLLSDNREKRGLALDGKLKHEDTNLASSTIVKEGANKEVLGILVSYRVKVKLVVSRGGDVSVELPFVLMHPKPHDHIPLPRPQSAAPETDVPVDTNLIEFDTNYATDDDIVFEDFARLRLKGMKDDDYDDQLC

Row | SMILES | activation of GPR35 (in words) | activation of GPR35 (in words) (listed as 3-SL) | EC50 | activation of GPR35 (in words) (listed as difucosyllactose)
1 | CC(=O)N[C@H]1[C@H](O[C@H]2[C@@H](O)[C@@H](CO)O[C@@H](O[C@H]3[C@H](O)[C@@H](O)C(O)O[C@@H]3CO)[C@@H]2O)O[C@H](CO)[C@@H](O[C@@H]2O[C@H](CO)[C@H](O)[C@H](O)[C@H]2O)[C@@H]1O (mixture of isomers) [LNnT, lacto-N-neotetraose] | No activation; also recorded: do not activate |  |  | 
2 | CC(=O)N[C@H]1[C@H]([C@H](O)[C@H](O)CO)O[C@@](O[C@H]2[C@@H](O)[C@@H](CO)O[C@@H](O[C@H]3[C@H](O)[C@@H](O)C(O)O[C@@H]3CO)[C@@H]2O)(C(=O)O)C[C@@H]1O (stereo partly shown) [3SL, 3′-sialyllactose] | No activation | do not activate |  | 
3 | CC(=O)N[C@H]1[C@H]([C@H](O)[C@H](O)CO)O[C@@](OC[C@H]2O[C@@H](O[C@H]3[C@H](O)[C@@H](O)[C@H](O)O[C@@H]3CO)[C@H](O)[C@@H](O)[C@H]2O)(C(=O)O)C[C@@H]1O [6′SL, 6′-sialyllactose] |  |  | 6.5 mM | 

Other lines, results leading:

Row | activation of GPR35 (in words) | activation of GPR35 (in words) (listed as 3-SL) | EC50 | activation of GPR35 (in words) (listed as difucosyllactose) | SMILES
4 |  |  | 4.5 mM |  | CC(=O)N[C@H]1[C@H](O[C@H]2[C@@H](O)[C@@H](CO)O[C@@H](O[C@H]3[C@H](O)[C@@H](O)C(O)O[C@@H]3CO)[C@@H]2O)O[C@H](CO)[C@@H](O)[C@@H]1O[C@@H]1O[C@H](CO)[C@H](O)[C@H](O)[C@H]1O (stereo partly shown) [LNT, lacto-N-tetraose]
5 | No activation |  |  | do not activate | C[C@@H]1O[C@@H](O[C@H]2[C@H](O[C@H]3[C@H](O[C@@H]4O[C@@H](C)[C@@H](O)[C@@H](O)[C@@H]4O)[C@@H](O)C(O)O[C@@H]3CO)O[C@H](CO)[C@H](O)[C@@H]2O)[C@@H](O)[C@H](O)[C@@H]1O (stereo partly shown) [diFL, difucosyllactose]

From patent US12109220B2, “Compositions for use in the reduction of nociception in children” (SOCIETE DES PRODUITS NESTLE S.A., priority 2017, dated 2024)
